Measured values taken from the supplement of paper PMC10307832.

Columns and labels:
Assay in all cases: relative viability (nuclei count vs DMSO), 5 days (fraction); higher = more cells survive
Midostaurin = compound: CO[C@@H]1[C@H](N(C)C(=O)c2ccccc2)C[C@H]2O[C@]1(C)n1c3ccccc3c3c4c(c5c6ccccc6n2c5c31)C(=O)NC4 [Midostaurin]
Summary of the method: (§1)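 A plate was accepted only when its control CV was below 25% and the cells had doubled at least once. Viability is defined from nuclear counts as treated wells divided by vehicle wells, with the median taken across plates. That median covers lung cancer cell lines grown in 1536-well plates, dosed by pinning at five √10-spaced library-drug concentrations, and counted in MetaXpress from 4× Hoechst images after 5 days.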

[1] = compound: COc1cc(-c2nn([C@H]3CC[C@H](N4CCN(C(C)=O)CC4)CC3)c3ncnc(N)c23)ccc1NC(=O)c1cc2ccccc2n1C
Summary of the method: as §1

[2] = compound: COc1cc(-c2nn([C@H]3CC[C@H](N4CCN(C(C)=O)CC4)CC3)c3ncnc(N)c23)ccc1NC(=O)c1cc2ccccc2n1C + CC1(C)CCC(c2ccc(Cl)cc2)=C(CN2CCN(c3ccc(C(=O)NS(=O)(=O)c4ccc(N[C@H](CCN5CCOCC5)CSc5ccccc5)c(S(=O)(=O)C(F)(F)F)c4)cc3)CC2)C1 [Navitoclax] (partner 0.5 µM)
Summary of the method: (§2)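 Values are medians from duplicate plates. Each reflects relative viability, defined as the nuclei count of treated wells over that of vehicle wells. Lung cancer cell lines in 1536-well plates were pin-tool dosed one day after seeding with one drug alone or with a fixed anchor-drug dose plus five library-drug doses (not always all listed) in √10 steps, then fixed, stained and imaged at 4× after 5 days.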

Midostaurin + Trametinib = compound: CO[C@@H]1[C@H](N(C)C(=O)c2ccccc2)C[C@H]2O[C@]1(C)n1c3ccccc3c3c4c(c5c6ccccc6n2c5c31)C(=O)NC4 [Midostaurin] + CC(=O)Nc1cccc(-n2c(=O)n(C3CC3)c(=O)c3c(Nc4ccc(I)cc4F)n(C)c(=O)c(C)c32)c1 [Trametinib] (partner 0.02 µM)
Summary of the method: as §2

[3] = compound: COc1cc(-c2nn([C@H]3CC[C@H](N4CCN(C(C)=O)CC4)CC3)c3ncnc(N)c23)ccc1NC(=O)c1cc2ccccc2n1C + NC(=O)Nc1cc(-c2cccc(F)c2)sc1C(=O)N[C@H]1CCCNC1 [AZD7762] (partner 0.2 µM)
Summary of the method: as §2

Row | Cell Line | relative viability (Midostaurin; 0.01 µM) | relative viability (Midostaurin; 0.03162 µM) | relative viability (Midostaurin; 0.1 µM) | relative viability (Midostaurin; 0.3162 µM) | relative viability ([1]; 0.0128 µM) | relative viability ([1]; 0.04048 µM) | relative viability ([1]; 0.128 µM) | relative viability ([1]; 1.28 µM) | relative viability ([2]; first compound 0.0128 µM) | relative viability ([2]; first compound 0.04048 µM) | relative viability ([2]; first compound 0.128 µM) | relative viability ([2]; first compound 1.28 µM) | relative viability (Midostaurin + Trametinib; first compound 0.01 µM) | relative viability (Midostaurin + Trametinib; first compound 0.03162 µM) | relative viability (Midostaurin + Trametinib; first compound 0.1 µM) | relative viability (Midostaurin + Trametinib; first compound 0.3162 µM) | relative viability ([3]; first compound 0.0128 µM) | relative viability ([3]; first compound 0.04048 µM) | relative viability ([3]; first compound 0.128 µM) | relative viability ([3]; first compound 1.28 µM)
1 | NCI-H23 | 1.05 | 0.962 | 0.791 | 0.562 | 0.951 | 0.726 | 0.901 | 0.946 | 0.825 | 0.549 | 0.716 | 0.77 | 0.369 | 0.441 | 0.285 | 0.299 | 0.268 | 0.199 | 0.261 | 0.199
2 | LCLC-97TM1 | 1.02 | 0.867 | 1.06 | 1.17 | 0.943 | 0.879 | 0.946 | 0.931 | 0.464 | 0.388 | 0.385 | 0.389 | 0.266 | 0.194 | 0.195 | 0.184 | 0.377 | 0.165 | 0.283 | 0.194
3 | EPLC-272H | 1.04 | 0.944 | 0.93 | 0.969 | 0.906 | 0.873 | 0.963 | 0.865 | 1.13 | 1.05 | 0.983 | 0.871 | 0.352 | 0.304 | 0.28 | 0.301 | 0.253 | 0.207 | 0.215 | 0.142
4 | NCI-H1915 | 0.951 | 0.946 | 0.951 | 1.03 | 1.03 | 0.783 | 0.957 | 0.831 | 0.851 | 0.755 | 0.758 | 0.706 | 0.329 | 0.312 | 0.258 | 0.271 | 0.714 | 0.665 | 0.69 | 0.448
5 | NCI-H2405 | 1.01 | 1.05 | 0.883 | 1.07 | 1.06 | 0.667 | 0.964 | 0.526 | 0.744 | 0.639 | 0.729 | 0.265 | 0.615 | 0.562 | 0.61 | 0.607 | 0.707 | 0.615 | 0.573 | 0.349
6 | NCI-H322M | 1 | 0.852 | 1.06 | 1.34 | 0.995 | 0.897 | 0.909 | 0.69 | 1.36 | 1.09 | 1.18 | 1.12 | 0.483 | 0.567 | 0.536 | 0.568 | 0.496 | 0.599 | 0.536 | 0.444
7 | NCI-H2170 | 0.973 | 0.941 | 1.01 | 1 | 1.07 | 0.996 | 0.991 | 0.821 | 0.652 | 0.749 | 0.579 | 0.453 | 0.965 | 0.9 | 0.894 | 1.02 | 0.914 | 0.928 | 0.788 | 0.6
8 | NCI-H1395 | 0.919 | 0.977 | 0.88 | 0.922 | 0.907 | 0.847 | 0.798 | 0.659 | 0.963 | 1.26 | 1.16 | 0.881 | 0.978 | 0.991 | 1.15 | 1.08 | 0.459 | 0.394 | 0.402 | 0.322
9 | NCI-H838 | 1 | 0.927 | 0.801 | 0.667 | 0.953 | 0.995 | 0.899 | 0.728 | 1.26 | 1.18 | 1.23 | 0.859 | 0.518 | 0.562 | 0.412 | 0.311 | 1 | 0.921 | 0.91 | 0.75
10 | CAL-12T | 1.05 | 0.882 | 0.921 | 0.839 | 1.03 | 1.03 | 1.06 | 0.991 | 1.2 | 1.41 | 1.27 | 1.44 | 0.399 | 0.298 | 0.331 | 0.33 | 0.675 | 0.7 | 0.49 | 0.581
